PMC10607100, “Anticancer and Antiphytopathogenic Activity of Fluorinated Isatins and Their Water-Soluble Hydrazone Derivatives” (International Journal of Molecular Sciences, 2023)
Read-outs that look alike come from different tables or passages of the source.

Key:
Type in all cases: cell-based
Micrococcus luteus B-109 = experiment: Agar-well diffusion, bactericidal activity; settings: Micrococcus luteus
Source text: (§1) Plant pathogenic bacterial strains Micrococcus luteus B-109, Pectobacterium atrosepticum 1043, Pectobacterium carotovorum subsp. carotovorum MI, Pseudomonas fluorescens EL-2.1, and Xanthomonas campestris B-610 and the fungal strain Fusarium oxysporum IBPPM 543 were from the Collection of Rhizosphere Microorganisms, IBPPM RAS (WFCC no. 975, WDCM no. 1021) (CM IBPPM, http://collection.ibppm.ru). The pathogenic fungus Phytophthora cactorum VKM F-985, provided by the All-Russian Collection of Microorganisms (VKM) and deposited at the A.E. Favorsky Irkutsk Institute of Chemistry, SB RAS, was also used as a test organism. Bacteria M. luteus, P. carotovorum subsp. carotovorum, P. atrosepticum, and P. fluorescens were grown in a meat–peptone medium (BP), and X. campestris was grown in the medium with glucose, yeast extract, and calcium carbonate (GYCa). Solid media contained Bacto agar (18 g/L); pH was adjusted to 7.2–7.4. All bacterial cultures were grown at 28 °C. The mycelial cultures of F. oxysporum and P. cactorum were grown on a glucose–peptone–yeast (GPY) nutrient medium at 27 °C. For inoculum preparation, both fungal strains were initially grown on the agar GPY in Petri dishes and then transferred into the seed medium by punching out 5 mm of the agar plate culture with a self-designed cutter.
(§2) The antibacterial and antifungal activities of the compounds were explored using the agar-well diffusion method and the technique of mycelial radial growth inhibition. The method of diffusion in agar (measuring the diameter of growth inhibition zones) was used to determine the bactericidal activity. The 6-mm wells were made in agar medium (GYCa for Xanthomonas campestris or BP for other bacteria). Bacterial suspensions were distributed over the agar surface, and the tested compound’s solution (150 μL) was added to each well. The width of growth inhibition zones around the wells was determined after incubation for 36–40 h.

[1] = system: Pectobacterium carotovorum subsp. carotovorum MI; experiment: Agar-well diffusion, bactericidal activity; settings: Pectobacterium carotovorum, 2 mM/L
Source text: as §1, §2

[2] = system: Pseudomonas fluorescens EL-2.1; experiment: Agar-well diffusion, bactericidal activity; settings: Pseudomonas fluorescens, EL2.1; 2 mM/L; average of 3 experiments; read-out: width of the inhibition zone (mm), Ps. fluorescens
Source text: as §1, §2

[3] = system: Pectobacterium atrosepticum 1043; experiment: Agar-well diffusion, bactericidal activity; settings: Pectobacterium atrosepticum, 1043; 2 mM/L; average of 3 experiments; read-out: width of the inhibition zone (mm), P. atrosepticum
Source text: as §1, §2

[4] = system: Xanthomonas campestris B-610; experiment: Agar-well diffusion, bactericidal activity; settings: Xanthomonas campestris
Protocol: Bacteria M. luteus, P. carotovorum subsp. carotovorum, P. atrosepticum, and P. fluorescens were grown in a meat–peptone medium (BP), and X. campestris was grown in the medium with glucose, yeast extract, and calcium carbonate (GYCa). Solid media contained Bacto agar (18 g/L); pH was adjusted to 7.2–7.4. […] For inoculum preparation, both fungal strains were initially grown on the agar GPY in Petri dishes and then transferred into the seed medium by punching out 5 mm of the agar plate culture with a self-designed cutter.
as §2

[5] = system: Fusarium oxysporum IBPPM 543; experiment: Mycelial radial growth inhibition; settings: for inhibition of growth at 1 µM: 1 nmol/mL; for inhibition of growth at 1 µM / inhibition of growth at 5 µM / inhibition of growth at 20 µM / inhibition of growth at 40 µM: read-out: Inhibition value, I (%); for inhibition of growth at 5 µM: 5 nmol/mL; for inhibition of growth at 20 µM: 20 nmol/mL; for inhibition of growth at 40 µM: 40 nmol/mL
Source text: as §1
(§3) For the fungicidal activity analysis, radial growth (colony diameters) of the fungi on a solid medium in the absence and in the presence of the compounds 5a–e and 7a–c solutions at various concentrations were compared. The method consisted of the following: A sterile GPY agar medium (20.0 mL), which was melted and then allowed to cool to approximately 60 °C, was mixed with the precisely measured volumes of the solutions under question and poured into a sterile Petri dish (90 mm i.d.). After the solidification of GPY agar, the media were inoculated by the fungus using 10-day-old cultures of F. oxysporum or P. cactorum. The inoculation was conducted by transferring a 5-mm (i.d.) GPY-agar block covered with mycelium to the center of the Petri dish, followed by incubation in a thermostat at 27 °C. The fungicidal effect was scored by the size of the mycelium colony on a Petri dish compared to the control without fungicidal admixtures to GPY agar. Each treatment was performed in at least four replicates in two independent experiments. The observation period ended when the control Petri dish was filled with mycelium (usually after 12 days). […] The solutions of the compounds were prepared with a concentration of 2 mmol/L (stock solution). For comparison, test compounds were also commonly applied as disinfecting agents, and antibiotics were used as a positive control.

[6] = system: Phytophthora cactorum VKM F-985; experiment: Mycelial radial growth inhibition; settings: for inhibition of growth at 3 µM: 3 nmol/mL; for inhibition of growth at 3 µM / inhibition of growth at 7 µM / inhibition of growth / inhibition of growth at 40 µM: read-out: Inhibition value, I (%); for inhibition of growth at 7 µM: 7 nmol/mL; for inhibition of growth: 27 nmol/mL; for inhibition of growth at 40 µM: 40 nmol/mL
Source text: as §1, §3

[7] = system: five representative phytopathogens; experiment: Agar-well diffusion, bactericidal activity over the panel of phytopathogens; settings: 36 h, 2 mM solutions; dependent on the test system used; read-out: inhibition zone width (mm), range over the test systems
Source text: as §1, §2

[8] = Fusarium oxysporum, IBPPM543, 72 h, age of the fungus 3 days
[9] = Fusarium oxysporum, IBPPM543, 120 h, age of the fungus 5 days
[10] = Fusarium oxysporum, IBPPM543, 168 h, age of the fungus 7 days
[11] = Fusarium oxysporum, IBPPM543, 216 h, age of the fungus 9 days
[12] = Phytophthora cactorum, 72 h, age of the fungus 3 days
[13] = Phytophthora cactorum, 120 h, age of the fungus 5 days
[14] = Phytophthora cactorum, 168 h, age of the fungus 7 days
[15] = Phytophthora cactorum, 216 h, age of the fungus 9 days

## Cc1ccc[n+](CC(=O)N/N=C2\C(=O)N(Cc3c(F)cccc3Cl)c3ccccc32)c1C [Compound 7b]
Micrococcus luteus B-109; B109, 2 mM/L, average of 3 experiments, read-out: width of the inhibition zone (mm), M. luteus
  zone of inhibition at 2000 µM: 7 mm
Micrococcus luteus B-109; B109, Table S3, 2 mM/L, read-out: Inhibition zone width (mm), not less
  zone of inhibition at 2000 µM: ≥ 7 mm
[1]; average of 3 experiments, read-out: width of the inhibition zone (mm), P. carotovorum subsp. carotovorum
  zone of inhibition at 2000 µM: 5 mm
[1]; Table S3, read-out: Inhibition zone width (mm), not less
  zone of inhibition at 2000 µM: ≥ 5 mm
[2]
  zone of inhibition at 2000 µM: 4.5 mm
[3]
  zone of inhibition at 2000 µM: 4 mm
[4]; B610, 2 mM/L, average of 3 experiments, read-out: width of the inhibition zone (mm), X. campestris
  zone of inhibition at 2000 µM: 7 mm
[4]; B610, Table S3, 2 mM/L, read-out: Inhibition zone width (mm), not less
  zone of inhibition at 2000 µM: ≥ 7 mm
[5]; [8]
  inhibition of growth at 1 µM: 13%
  inhibition of growth at 5 µM: 32%
  inhibition of growth at 20 µM: 35%
  inhibition of growth at 40 µM: 55%
[5]; Fusarium oxysporum, IBPPM543, 120 h, day 5, read-out: EC50, µg/mL at Day 5, F. oxysporum
  EC50: ≤ 21 µg/mL
[5]; [9]
  inhibition of growth at 1 µM: 15%
  inhibition of growth at 5 µM: 29%
  inhibition of growth at 20 µM: 35%
  inhibition of growth at 40 µM: 52%
[5]; [10]
  inhibition of growth at 1 µM: 10%
  inhibition of growth at 5 µM: 20%
  inhibition of growth at 20 µM: 30%
  inhibition of growth at 40 µM: 43%
[5]; [11]
  inhibition of growth at 1 µM: 11%
  inhibition of growth at 5 µM: 13%
  inhibition of growth at 20 µM: 25%
  inhibition of growth at 40 µM: 39%
[5]; same culture age (5 days)
  fungicidal action stronger than N-cetylpyridinium chloride: 7.0 times
  inhibition of Fusarium growth greater than fludioxonil: 4.1 times
[6]; 5 days of growth
  antagonistic effect superior to that of N-cetylpyridinium chloride: 1.3 times
  antagonistic effect superior to that of fludioxonil: 1.1 times
[6]; [12]
  inhibition of growth at 3 µM: 15%
  inhibition of growth at 7 µM: 25%
  inhibition of growth: 30%
  inhibition of growth at 40 µM: 39%
[6]; Phytophthora cactorum, 120 h, day 5, read-out: EC50, µg/mL at Day 5, P. cactorum
  EC50: ≤ 28 µg/mL
[6]; [13]
  inhibition of growth at 3 µM: 12%
  inhibition of growth at 7 µM: 25%
  inhibition of growth: 32%
  inhibition of growth at 40 µM: 40%
[6]; [14]
  inhibition of growth at 3 µM: 9%
  inhibition of growth at 7 µM: 22%
  inhibition of growth: 28%
  inhibition of growth at 40 µM: 37%
[6]; [15]
  inhibition of growth at 3 µM: 7%
  inhibition of growth at 7 µM: 16%
  inhibition of growth: 21%
  inhibition of growth at 40 µM: 35%
[7]
  zone of inhibition at 2000 µM: 4 to 7 mm
